Experimental data as given in patent US20250109388A1, “METHOD FOR ISOLATING AND CONCENTRATING EXTRACELLULAR VESICLE GROUP DERIVED FROM CANCER CELL, ANALYSIS METHOD, DRUG SELECTION METHOD, KIT, AND ANTI-CANCER AGENT” (THE UNIVERSITY OF TOKYO, priority 2022, published 2025).

How the values were obtained:
[1] = test system: human adipocytes; assay: Glycerin release (lipolysis) from human adipocytes treated with EVs; assay type: cell-based; settings: for Released glycerin level from adipocytes treated with Panc-1 EVs in presence of inhibitor: 10 μM H89, 0.5 μM orlistat, Cay10499
Protocol: (§1) Data are in terms of mean±SD (n=3). **P=0.0025. […] Data are in terms of mean±SD (n=3). […] P=0.65.
FIG. 15 This figure is a graph of glycerin release from adipocytes treated for 24 hours with EVs (1.5 μg) derived from Panc-1 cells, in the presence or absence of an inhibitor of endocytosis. The dosage of the inhibitor is as described in FIG. 14. Data are in terms of mean±SD (n=3). P=0.40 (CPZ), *P=0.027 (Nocodazole), *P=0.012 (CytD). **P=0.0065 (Nystatin), and **P=0.0074 (4° C.); comparison with cells treated with EV alone (control). Statistical analyses were carried out using Welch's t-test. […]
EVs having a mode diameter of 100 to 150 nm were isolated from various sources, except for EVs of about 240 nm derived from Capan-2 cells. […] The expression of exosome markers such as TSG101 and CD63 in EVs was confirmed, whereby it was confirmed that EV isolation was appropriate (see FIG. 1). To investigate the effect of EV, mature human adipocytes were induced from human adipose-derived mesenchymal stem cells (hAD-MSCs) and subjected to an EV treatment (see FIGS. 2 to 4). […] Miapapaca-2 cells, and BxPC-3 cells, but it was not observed in adipocytes treated with EVs derived from Capan-2 cells (see FIG. 5).

[2] = test system: human adipocytes; assay: EV internalization into human adipocytes by β-actin-HiBiT luciferase activity; assay type: cell-based; settings: Panc-1 EVs, 1 hour; 20 IM CPZ, 10 μM nocodazole, 20 μM CytD, 2.5 μg/mL nystatin
Protocol: The luciferase level is a luciferase level 5 of adipocytes treated for 1 hour with EV ([…]) in the presence or absence of a treatment with an endocytosis inhibitor (20 IM chlorpromazine (CPZ), 10 μM nocodazole, 20 μM cytochalasin D (CytD), or 2.5 μg/mL nystatin, or incubation at 4° C.), which is a value indicated in terms of comparison with a negative control (PBS). Data are in terms of mean±SD (n=3). P=0.74 (CPZ), *P=0.029 (nocodazole), *P=0.032 (CytD), **P=0.0078 (nystatin), and **P=0.0074 (4° C.); comparison with cells treated with EV alone (control).
Wild type: EVs derived from Panc-1 cells (not expressing HiBiT) as a negative control, EV-H and EV-L: EVs derived from Panc-1-ACTB-HiBiT cells cultured with high glucose and low glucose, respectively. […] P=0.61 (EV-H versus EV-L). […] P=0.72. […] The relative luciferase level of adipocytes treated for 1 hour with 10^9 particles of EVs (EV-H and EV-L) derived from Panc-1-ACTB-HiBiT cells was compared with the negative control (PBS). Data are in terms of mean±SD (n=3). **P=0.0011.
Wild type; Panc-1 cells (not expressing HiBiT) as a negative control, EV and EV-NP40; EVs derived from Panc-1-ACTB-HiBiT cells. 10^9 particles per sample were used. Data are in terms of mean±SD (n=3). **P=0.0017 (EV), **P<[…] (EV-NP40), and **P=0.0026 (EV versus EV-NP40). […] The luciferase level of the lysate of adipocytes treated for 1 hour with EVs (10^9 particles) derived from Panc-1-ACTB-HiBiT cells or EV-NP40 was compared with the negative control (PBS), and the results are shown. Data are in terms of mean±SD (n=3). *P=0.045. Statistical analyses were carried out using Welch's t-test.
β-actin is contained as a pan-EV marker in most EVs derived from human serum and human cell lines. To monitor the EV endocytosis level, a reporter cell (Panc-1-ACTB-HiBiT cell) was established by knocking in the HiBiT peptide sequence at the 3′ terminal of the ACTB locus of Panc-1 cell (see FIGS. 11 and 12). A high luciferase activity was detected in a lysate of cells and in EVs derived from these cells, and thus it was confirmed that the β-actin-HiBiT protein is present in the EVs (see FIGS. 13(A) and 13(B).
The luciferase level of the adipocyte lysate was upregualted 1 hour after the addition of EV and was similar to a level in a case where chlorpromazine, a clathrin-mediated endocytosis inhibitor, was used. […] (see FIG. 14).

[3] = test system: adipocytes; assay: Isoproterenol-induced glycerin release from adipocytes; assay type: cell-based, human
Excerpt: as §1
Further, the dependence of the lipolysis induced by EV, under newly synthesized cAMP, was investigated. In general, a β-stimulant such as isoproterenol activates G proteins, and it subsequently activates adenylyl cyclase, which leads to the synthesis of cAMP.

[4] = 30 μM SQ22536, 24-hour treatment

Row | Structure (SMILES) | Released glycerin level from adipocytes treated with Panc-1 EVs in presence of inhibitor [1] | Luciferase level of adipocyte lysate (EV internalization) with endocytosis inhibitor, vs EV alone [2] | also measured
1 | O=S(=O)(NCCNC/C=C/c1ccc(Br)cc1)c1cccc2cnccc12 [H89] | significantly reduced | – | –
2 | C[C@@H]1[C@H](O)[C@@H](C)/C=C/C=C/CC/C=C/C=C/C=C/C=C/C(O[C@H]2O[C@H](C)[C@@H](O)[C@H](N)[C@@H]2O)CC2O[C@](O)(CC(O)C(O)CCC(O)CC(O)CC(O)CC(=O)O[C@H]1C)CC(O)C2C(=O)O (stereo partly shown) [nystatin] | – | significantly lower | –
3 | CCCCCCCCCCC[C@@H](C[C@@H]1OC(=O)[C@H]1CCCCCC)OC(=O)[C@H](CC(C)C)NC=O [Orlistat] | significantly reduced | – | –
4 | C=C1[C@@H](C)[C@H]2[C@H](Cc3ccccc3)NC(=O)[C@]23[C@H](OC(C)=O)/C=C/[C@@](C)(O)C(=O)[C@@H](C)C/C=C/[C@H]3[C@@H]1O [cytochalasin D] | – | significantly lower | –
5 | COC(=O)Nc1nc2ccc(C(=O)c3cccs3)cc2[nH]1 [nocodazole] | – | significantly lower | –
6 | CC(C)NCC(O)c1ccc(O)c(O)c1 (stereo not shown) [isoproterenol] | – | – | Lipolysis in adipocytes (glycerin release) ([3]; 10 μM isoproterenol): induces lipolysis
7 | COc1nn(-c2ccc(NC(=O)OCc3ccccc3)c(C)c2)c(=O)o1 [Cay10499] | significantly reduced | – | –
8 | CN(C)CCCN1c2ccccc2Sc2ccc(Cl)cc21 [chlorpromazine] | – | similar | –
9 | Nc1ncnc2c1ncn2C1CCCO1 (stereo not shown) [SQ22536] | – | – | Inhibition of lipolysis induced by EVs derived from Panc-1 [1, 4]: did not inhibit; Inhibition of isoproterenol-induced lipolysis [3, 4]: significantly inhibited
